Reference: publication PMC10532956, “Age and Sex-Related Differences in Teicoplanine Isoform Concentrations in SARS-CoV-2 Patients” (Life, 2023)

Conditions: male, human, in vivo, iv

CC(=O)N[C@H]1[C@H](O[C@@H]2c3ccc(c(Cl)c3)Oc3cc4cc(c3O)Oc3ccc(cc3Cl)C[C@H]3NC(=O)[C@H](N)c5ccc(O)c(c5)Oc5cc(O)cc(c5)[C@H](NC3=O)C(=O)N[C@H]4C(=O)N[C@H]3C(=O)N[C@@H]2C(=O)N[C@H](C(=O)O)c2cc(O)cc(O[C@H]4O[C@H](CO)[C@@H](O)[C@H](O)[C@@H]4O)c2-c2cc3ccc2O)O[C@H](CO)[C@@H](O)[C@@H]1O [A3-1]
isoform plasma concentration, median: 0.18 µg/mL
